Results on 21 compounds are retold here after patent US8093273B2, “Flavanoids and isoflavanoids for the prevention and treatment of cardiovascular diseases” (Resverlogix Corp., priority 2004, dated 2012).

Structures are written as SMILES. Like-named read-outs stand apart in the source and are kept apart here.

One data set has as its system hApoA-I transgenic mice. As to the kind of experiment: hApoA-I transgenic mice, oral gavage for 14 days. The class given is in vivo. Conditions: for change in vivo at 10 mg/kg / change in vivo at 30 mg/kg: Mus musculus, po, 336 h, relative to pretreatment, read-out: ApoA-I (% change); for change in vivo at 10 mg/kg: 10 mg/kg BID 14 days; for change in vivo at 30 mg/kg: 30 mg/kg BID 14 days. The text has this: To test whether the efficacy of compounds of the invention observed in vitro extended to an in vivo model, transgenic mice carrying multiple copies of the human ApoA-I gene (C57BI/6-tgn(apoa1)1 rub, Jackson Laboratory, Bar Harbor, Me.) were exposed to representative compounds of the invention. The exogenous human ApoA-I gene in these mice enables them to express the human ApoA-I protein under the control of this promoter.
Seven to eight week old male mice, transgenic for human ApoA-I were housed five per cage (10″×20″×8″ with aspen chip bedding) with pelleted Rodent chow [Purina 5001] and water available at all times. After an acclimation period of 1 week, animals were individually identified by numbering on tail and weighed. Mice were pre bled via the retro-orbital plexus, and 150 μl of blood was collected in 1.5 ml Eppendorf tube containing 1 μl of heparin and chilled on ice. Plasma was collected after centrifuging the whole blood at 14000 rpm [TOMY high speed micro-refrigerated centrifuge NTX-150] for 10 minutes at 4° C. and frozen at −80° C. Plasma was analyzed for: human ApoA-I by a human ApoA-I enzyme-linked Immunoassay [Direct Sandwich ELISA Calbiochem Cat#178422, Calbiochem Cat#178452, lot #B9076, Calbiochem Cat #178470 conjugated to Horse Radish Peroxidase (Cedarlane Cat#80220)]; total cholesterol [Ponte scientific reagents: # C7509-STD, #L7580-18, # C7510]; and triglyceride [Pointe Scientific Reagents: # 7532-STD, # L7580-18, #7532]. All samples were measured in triplicates and expressed as mg/dl. Mice were grouped based on the above plasma parameters and having an average body weight of 25 gm.
Two days following pre-bleed, mice were dosed by oral gavage daily for 14 days using a 20 gauge, 11/2″ curved disposable feeding needle [Popper & Sons]; when BID, mice were gavaged morning and afternoon (8 am and 5 pm); when SID mice were gavaged in morning (8 am). Compounds were prepared each day in vehicle. Test article(s), a positive control fenofibrate, and vehicle were dosed at volume of 5 mL/kg of body weight as a suspension (0.1 mL/20 g mouse). Fenofibrate was obtained commercially [SIGMA #F 6020]. Mice weights were recorded on day 1, 4, 7, 10, 12, and 15. On day 15, mice were weighed and fasted for 4 hours, sacrificed by inhalation of CO2 and blood was obtained via cardiac puncture (0.7-1.0 ml). Plasma was collected and frozen at −80° C. Samples were assayed for ApoA-I, total cholesterol, triglyceride and HDL-C by HPLC [Polaris 200 with an auto sampler Prostar 410 from Varian on a Superose 6 10/30 column from Amersham]. Samples were sent for NMR analysis [LipoScience] to identify particle size and subclass for lipoproteins. During necropsy, liver, brown fat, and the whole of small and large intestines were collected, cleaned with cold PBS and frozen at −80° C. for further analysis of compound levels. Variation between studies, in ApoA-I changes, was observed. Therefore, a relative comparison between individual(s) in the study groups was used.
4′-hydroxyflavone (10 mg/kg of body weight), 4-(4-oxo-4H-chromen-2-yl)phenyl nicotinate (Example 71) (10 mg/kg of body weight) and fenofibrate (100 mg/kg of body weight) were BID administered to hApoA-I transgenic mice daily for fourteen days by oral gavage in 0.5% Methylcellulose (w/v)/1% Tween 80 (w/v). Plasma was assayed for ApoA-I (FIG. 3A), HDL cholesterol and total cholesterol (FIG. 3B) and percent weight gain (FIG. 3C).
4′-hydroxyflavone (3 mg/kg of body weight), 4′-hydroxyflavone (10 mg/kg of body weight), 4′-hydroxyflavone (30 mg/kg of body weight), 2-(4-Hydroxy-phenyl)-pyrano[2,3-b]pyridin-4-one (10 mg/kg of body weight), and fenofibrate (100 mg/kg of body weight) were BID administered to hApoA-I transgenic mice daily for fourteen days by oral gavage in 0.5% methylcellulose (w/v)/1% Tween 80 (w/v). In this experiment plasma was assayed for ApoA-I. […]

Another data set is described as follows: Caco-2 permeability. The data set is classed as in vitro ADME, human. The settings on record: human. From the text:
The Caco-2 cell drug transport model is widely used for screening compounds in drug discovery to assess intestinal transport and predict absorption rates.
(In general: Caco-2 monolayers are a common model of the intestinal barrier.)

For another data set, the system named is human ApoA-I promoter. Nature of the data set: ApoA-I promoter induction in Caco-2 intestinal cells (pAI.474-Luc luciferase reporter). Conditions: Caco-2 cells, 15 μM, 48 hours incubation, luciferase activity vs control samples. The data set is classed as cell-based. As to the method: To examine the effects of compounds of the invention to increase ApoA-I expression, Caco-2 cells, an intestinal cell line derived from human epithelial intestinal cells, were grown under conditions recommended by the ATCC and summarized in United States Patent Application Publication No. 20040033480 (“Wong”), incorporated herein by reference.
Briefly, the promoter region of the gene encoding human ApoA-I was isolated and ligated upstream of the firefly luciferase gene to construct the reporter plasmid pAI.474-Luc. This reporter plasmid and pRSV-β-galactosidase (as a control for transfection efficiency) were co-transfected to Caco-2 cells. The Caco-2 cells were then incubated in a MEM selection media containing 20% fetal calf serum supplemented with G418 (final concentration: 0.5 mg/mL, Gibco) to give established strains that stably express from the reporter gene. The strains were seeded in 6-well culture plates and incubated for 48 hours at 37° C. under 5% carbon dioxide. Cells were starved for 24 hrs in MEM selection media containing 0.5% FBS. Then, a solution of a compound of the invention in DMSO or other appropriate solvent was added to the wells at a final concentration of 0 to 100 μM in MEM selection media containing 0.5% FBS.
After further incubation for 48 hours, the cells were harvested and lysed using Reporter Lysis Buffer (PROMEGA E3971), and 50 μL of luciferase assay reagent (PROMEGA E4550 Luciferase Reporter 1000 assay system) was added to measure luciferase activity with a luminometer (Fluoroskan Ascent FL from Thermo electron Corporation). Luciferase activity was normalized to lysate protein concentrations, measured using Bradford Reagent (BioRad Protein Assay reagent Cat #500-0006). The luciferase activity of cells treated with various concentrations of test compounds was compared to that of solvent control sample (i.e., solvent without any compound of the present invention added) and untreated control sample.
A general note: In a reporter assay the amount or activity of a reporter protein is the signal.

The mark [1] stands for this setting: in vitro Caco-2 intestinal transport model, read-out: % Transported Paap.
[2] abbreviates: Table 6 fourth group, Control 3 1.11.

As for `O=c1cc(-c2ccc(O)cc2)oc2ncccc12` [2-(4-hydroxy-phenyl)-pyrano[2,3-b]pyridin-4-one], the “plasma ApoA-I, net % change over vehicle” value with hApoA-I transgenic mice (Experiment B, 10 mpk BID oral gavage, two weeks) stood at 3.75%.

In the case of `O=c1cc(-c2ccccc2)oc2cc(O)cc(O)c12` [5,7-Dihydroxy-2-phenyl-4H-chromen-4-one, 5,7-Dihydroxy-2-phenyl-chromen-4-one, reference compound], the Papp in the data set “Caco-2 permeability” (setting [1]) came to 0.122 ×10⁻⁶ cm/s. The “ApoA-I Promoter Induction” value with human ApoA-I promoter is “increased”.

For the compound `O=c1cc(-c2ccc(O)cc2)oc2cc(O)cc(O)c12` [5,7-dihydroxy-2-(4-hydroxyphenyl)-4H-chomen-4-one, reference compound], the Papp in the data set “Caco-2 permeability” (setting [1]) is 1.5 ×10⁻⁶ cm/s.

Consider `COc1ccc2c(=O)cc(-c3ccc(O)cc3)oc2c1` [7-methoxy-2-(4-hydroxyphenyl)-4H-chromen-4-one, reference compound], for which the Papp in “Caco-2 permeability” (setting [1]) was 6.92 ×10⁻⁶ cm/s.

`O=c1cc(-c2cc(F)c(O)c(F)c2)oc2ccccc12` [Example 6, 2-(3,5-difluoro-4-hydroxyphenyl)chromen-4-one] gave a melting point of 275 to 276 °C. The compound further came in with a Papp in “Caco-2 permeability” (Caco-2) of 0.531 ×10⁻⁶ cm/s.

`O=c1cc(-c2ccc(O)cc2)oc2cccnc12` [Example 35, 2-(4-hydroxy-phenyl)-pyrano[3,2-b]pyridin-4-one]: the Papp in the data set “Caco-2 permeability” (Caco-2) was found to be 1.98 ×10⁻⁶ cm/s. The “ApoA-I Promoter Induction” value with human ApoA-I promoter is on record as “increase”.

For the compound `O=c1cc(-c2ccc(O)cc2)oc2cnccc12` [Example 36, 2-(4-Hydroxyphenyl)pyrano[2,3-c]pyridin-4-one], the melting point was 294 to 296 °C. Moreover, the change in vivo at 10 mg/kg in the data set with hApoA-I transgenic mice (setting [2]) was found to be 17%. In the data set with human ApoA-I promoter, the “ApoA-I Promoter Induction” value was “increased”.

Take `O=c1cc(-c2ccc(O)nc2)oc2ccccc12` [Example 48, 2-(6-Hydroxypyridin-3-yl)-chromen-4-one]: the melting point lay within 296 to 297 °C. In addition, in the data set on hApoA-I transgenic mice (setting [2]), the change in vivo at 10 mg/kg came out at 4.94%. Moreover, the “ApoA-I Promoter Induction” value in the data set on human ApoA-I promoter was “no increase”.

Consider `O=c1cc(-c2ccc(O)cc2)[nH]c2ccccc12` [Example 51, 2-(4-Hydroxy-phenyl)-1H-quinolin-4-one], for which the change in vivo at 10 mg/kg in the data set on hApoA-I transgenic mice (Table 6 third group, Control 3 (F-101) (6.32)) came to 32.8%. In addition, the “ApoA-I Promoter Induction” value with human ApoA-I promoter is recorded as “no increase”.

The compound `Cn1c(-c2ccc(O)c(F)c2)cc2ncccc2c1=O` [Example 56, 7-(3-Fluoro-4-hydroxyphenyl)-6-methyl-1,6-naphthyridin-5(6H)-one] registered a melting point of 182 to 184 °C. Besides, the “ApoA-I Promoter Induction” value in the data set on human ApoA-I promoter is recorded as “no increase”.

In the case of `COc1cccc2c(=O)[nH]c(-c3ccc(O)c(F)c3)cc12` [Example 59, 3-(3-Fluoro-4-hydroxyphenyl)-5-methoxyisoguinolin-1(2H)-one], the melting point was in the range of 289 to 291 °C. The “ApoA-I Promoter Induction” value with human ApoA-I promoter is on record as “increased”.

Regarding `O=c1nc(-c2ccc(O)cc2)oc2ccccc12` [Example 67, 2-(4-Hydroxyphenyl)benzo[e][1,3]oxazin-4-one], the melting point lay within 273 to 275 °C. For the same compound, the “ApoA-I Promoter Induction” value in the data set with human ApoA-I promoter is given as “increased”.

`CC(=O)Oc1ccc(C2=CC(C)(C)c3ccccc3O2)cc1` [Example 69, 4-(4,4-Dimethyl-4H-chromen-2-yl)phenyl acetate] showed a melting point of 84 to 86 °C. In addition, the “ApoA-I Promoter Induction” value with human ApoA-I promoter was “increased”.

The compound `Oc1ccc(C2=COc3ccccc3O2)cc1` [Example 70, 4-(Benzo[b][1,4]dioxin-2-yl)phenol] returned a melting point of 137 to 140 °C. Further, the “ApoA-I Promoter Induction” value with human ApoA-I promoter was “increased”.

`CC(=O)Oc1ccc(-c2cc(=O)c3ccccc3o2)cc1` [Example 72, 4-(4-oxo-4H-chromen-2-yl)phenyl acetate] returned a Papp in “Caco-2 permeability” (Caco-2) of 2.65 ×10⁻⁶ cm/s. For the same compound, in the data set with human ApoA-I promoter, the “ApoA-I Promoter Induction” value is reported as “increased”.

Regarding `CC(=O)Oc1ccc(-c2cc(=O)c3cccnc3o2)cc1` [Example 75, 4-(4-Oxo-4H-pyrano[2,3-b]pyridine-2-yl)phenyl acetate], the melting point lay in the range of 167 to 169 °C. Further, the “ApoA-I Promoter Induction” value in the data set with human ApoA-I promoter is given as “increased”.

Take `CC(=O)Oc1ccc(C2=COc3ccccc3O2)cc1` [Example 77, 4-(Benzo[b][1,4]dioxin-2-yl)phenyl acetate]: the melting point fell in the range of 123 to 125 °C. In the data set on human ApoA-I promoter, the “ApoA-I Promoter Induction” value was “increased”.

`O=c1cc(-c2ccc([N+](=O)[O-])cc2)oc2ncccc12` [Example 80, 2-(4-Nitrophenyl)-4H-pyrano[2,3-b]pyridine-4-one] displayed a melting point of 261 to 263 °C. In addition, the “ApoA-I Promoter Induction” value with human ApoA-I promoter is “no increase”.

Consider `O=c1c(-c2ccc(O)cc2)coc2ccccc12` [Example 84, 3-(4-Hydroxyphenyl)-4H-chromen-4-one], for which the melting point fell in the range of 237 to 238 °C. Moreover, in the data set on human ApoA-I promoter, the “ApoA-I Promoter Induction” value is listed as “increased”.

For `O=c1c(-c2ccc(O)cc2)coc2ncccc12` [Example 85, 3-(4-Hydroxyphenyl)-4H-pyrano[2,3-b]pyridine-4-one], the melting point was 262 to 264 °C. Besides, the “ApoA-I Promoter Induction” value with human ApoA-I promoter is on record as “increased”.

As for `CC(C)OC(=O)C(C)(C)Oc1ccc(C(=O)c2ccc(Cl)cc2)cc1` [fenofibrate, reference compound], in the data set on hApoA-I transgenic mice (Experiment A, 100 mg/kg BID, day 15, male mice), the “liver weight gain normalized to body weight, compared to vehicle” value is given as “significant increase”. Moreover, the change in vivo at 30 mg/kg in the data set on hApoA-I transgenic mice (setting [2]) amounted to 68.9%; in the data set with hApoA-I transgenic mice (Table 6 second group, Control 1 3.42), 127%; in the data set on hApoA-I transgenic mice (Table 6 third group, Control 3 (6.32)), 74.4%.

The melting point is the temperature, or range, at which the solid turns liquid.
